Assay results from patent US9981961B2, “Deoxycytidine kinase inhibitors” (The Regents of the University of California, priority 2013, dated 2018).

Legend:
[1] = target: dCK activity in CCRF-CEM tumor xenografts (Homo sapiens, UniProt P27707)
Procedure: Four hours post-treatment mice were injected intravenously with 70 μCi of ^18F-L-FAC. For all mPET/CT studies, a 1 h interval was allowed between probe administration and mPET/CT scanning (Inveon, Siemens Medical Solutions USA Inc.; microCAT, Imtek Inc.). Static mPET images were acquired for 600 s. Images were analyzed using OsiriX Imaging Software Version 3.8.

[2] = tested on: CEM leukemic cells in bone marrow; test: Systemic T-ALL model (CEM cells injected intravenously); format: in vivo, NSG mice; details: dT 2 g/kg every 12 hr
Procedure: Ten μL of blood was collected via tail vein nick and mixed with 2 μL 50 mM EDTA. One μL of blood was mixed with 99 μL PBS and transferred to a 96 well OptiPlate (Perkin Elmer). One hundred μL of 20 μM coelenterazine substrate was mixed and luciferase activity was measured using a plate luminescence microplate reader SpectraMax L (Molecular Devices). Systemic tumor models were established by intravenous injection of 10^6 CEM dCK^wt-sGluc-GFP or dCK^low-sGluc-GFP in 100 μL RPMI.

[3] = tested on: NSP-produced dCTP incorporated into tumor DNA; test: [U-13C/15N]-dC incorporation into DNA of CEM tumor xenografts; format: in vivo, NSG mice; details: dCK^wt CEM tumors, dT 2 g/kg single dose, 4 hr
Procedure: For the in vivo studies, tumor-bearing mice were injected with 200 μL, of 2.5 mM [U-^13C/^15N]-deoxycytidine 30 min prior to sacrifice. Tumors were harvested, mechanically digested into single cells, and cell counts were obtained. DNA extraction was carried out as described above.
DNA hydrolysis samples were diluted 1/1 with solvent A (water/formic acid, 100/0.2, v/v) and analyzed using a modified version of a previously reported method (Cohen et al., 2009) in which aliquots of the solution (10 μL) were injected onto a porous graphitic carbon column (Thermo Hypercarb, 100×2.1 mm, 3 micron particle size) equilibrated in solvent A and eluted (300 μL/min) with an increasing concentration of solvent B (acetonitrile/min/% B; 0/0, 6/60, 6.1/100, 9/100, 9.1/0, 10/0). […] After verification of retention times using authentic standards, the peak areas of the MH^+→fragment ion transitions for the dC isotopomers (M0, 228.1→112.1; M1, 229.1→112.1; M2, 230.1→112.1; M3, 231.1→112.1; M4, 232.1→112.1; M5, 233.1→112.1; M6, 234.1→113.1; M7, 235.1→114.1; M8, […]; […]; M11, 239.1→118.1; and M12, 240.1→119.1) were recorded with instrument manufacturer-supplied software (Agilent MassHunter), and normalized to cell number. The dC isotopomers of M3 through M8 for the DNP and M11 through M12 for NSP were detected and used for data analysis.

[4] = tested on: NSP-produced dCTP incorporated into DNA of CEM cells; test: Stable isotope labeling of dCTP biosynthesis in CEM cells; format: cell-based, human; details: 12 hr labeling, dT treatment
[5] = Plasma thymidine level after dT injection; format: in vivo, NSG mice
Procedure: NOD SCID gamma (NSG) mice were injected with 2 g/kg dT intraperitoneally; 75 μL of whole blood was obtained at 0, 2, 4, and 8 hr through retro-orbital sinus bleed using hematocrit capillary tubes. Whole blood was immediately centrifuged at 3000× g for 5 min to isolate serum; 30 μL of serum was mixed with 1 mL methanol:acetonitrile (1:9), vortexed for 2 min, centrifuged at 14,000× g for 4 min at 4° C. Extraction was repeated and the pooled supernatant was dried under vacuum centrifugation. The residue was dissolved in 100 μL water, filtered and eluted through a Waters microBondapak C18 column under a gradient mobile phase from 2% methanol to 50% methanol over ten minutes at a flow rate of 1.5 mL/min.

[6] = tested on: dCTP and dTTP pools of CEM cells; test: Intracellular dNTP pool measurement in CEM cells; format: cell-based, human; details: 24 hr

Sequence of dCK activity in CCRF-CEM tumor xenografts (P27707 whole entry): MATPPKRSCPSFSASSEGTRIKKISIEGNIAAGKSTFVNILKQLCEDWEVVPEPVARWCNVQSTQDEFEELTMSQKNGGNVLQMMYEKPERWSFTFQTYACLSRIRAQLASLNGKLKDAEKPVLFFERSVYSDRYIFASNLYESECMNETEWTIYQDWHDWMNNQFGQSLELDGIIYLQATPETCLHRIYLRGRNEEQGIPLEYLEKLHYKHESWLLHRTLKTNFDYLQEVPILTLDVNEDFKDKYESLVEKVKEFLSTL

## Cc1cn([C@H]2C[C@H](O)[C@@H](CO)O2)c(=O)[nH]c1=O [dT, thymidine]
[1]
  increase of 18F-L-FAC accumulation: ~20%
[2]
  fold reduction in percentage of leukemic cells in bone marrow relative to vehicle and DI-39 treated groups: ~7 fold
[3]
  fold increase of labeled dCTP incorporation into DNA: ~3 fold
[4]
  fold increase over baseline of utilization of NSP-produced dCTP for DNA synthesis: more than 3 fold
[5]; NOD SCID gamma (NSG), mouse, plasma, ip, at 8 hr after single injection 2 g/kg intraperitoneally, read-out: plasma dT, declined to baseline values
  concentration at 8 hr: ~10 µM
[5]; two hours after single injection 2 g/kg intraperitoneally
  plasma dT peak: 1.5 mM
[6]; 50 μM dT
  fold increase of dTTP: ~20 fold
  fold reduction of dCTP: ~5 fold
[6]; DI-39 1 μM, dT 50 μM, or both
  decrease of dCTP pool: ~30%
